This is an account of results in patent US11167007B2, “FOXM1 modulators and uses thereof” (City of Hope, priority 2016, dated 2021).

Structures are written as SMILES. Entries after “also recorded” stand apart in the source; their conditions may differ.

The target of assay [1] is T1, AR (Homo sapiens, UniProt P10275).
T1 sequence (P10275 1-920): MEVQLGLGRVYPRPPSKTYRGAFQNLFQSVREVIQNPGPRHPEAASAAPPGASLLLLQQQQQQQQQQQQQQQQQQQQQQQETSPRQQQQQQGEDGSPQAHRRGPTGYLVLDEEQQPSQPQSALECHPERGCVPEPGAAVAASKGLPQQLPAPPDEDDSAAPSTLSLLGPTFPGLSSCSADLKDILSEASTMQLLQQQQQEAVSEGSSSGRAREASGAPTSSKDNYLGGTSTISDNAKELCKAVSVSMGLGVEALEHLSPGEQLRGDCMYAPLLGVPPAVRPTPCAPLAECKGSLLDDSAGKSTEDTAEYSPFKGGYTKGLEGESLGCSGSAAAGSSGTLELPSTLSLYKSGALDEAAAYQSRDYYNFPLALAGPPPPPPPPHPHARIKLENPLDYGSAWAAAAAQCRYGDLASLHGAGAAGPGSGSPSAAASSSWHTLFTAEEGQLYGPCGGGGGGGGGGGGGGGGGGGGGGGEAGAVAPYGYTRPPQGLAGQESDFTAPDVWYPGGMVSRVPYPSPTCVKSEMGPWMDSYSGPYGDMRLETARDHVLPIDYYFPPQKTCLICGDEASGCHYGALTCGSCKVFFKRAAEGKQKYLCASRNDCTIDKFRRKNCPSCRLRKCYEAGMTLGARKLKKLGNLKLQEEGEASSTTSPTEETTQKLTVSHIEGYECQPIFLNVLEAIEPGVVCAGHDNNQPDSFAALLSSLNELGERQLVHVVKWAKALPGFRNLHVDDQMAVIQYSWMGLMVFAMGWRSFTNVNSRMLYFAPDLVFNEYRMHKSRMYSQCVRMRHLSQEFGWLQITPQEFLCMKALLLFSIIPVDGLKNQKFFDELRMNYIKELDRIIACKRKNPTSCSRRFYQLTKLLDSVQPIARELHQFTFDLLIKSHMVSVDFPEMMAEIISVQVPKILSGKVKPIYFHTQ
Put plainly: FRET-based AR conformation change reporter (CARY) in C2C12 muscle cells. Details: Full length AR with cyan fluorescent protein (CFP) or yellow fluorescent protein (YFP) fused to either end (CARY); expressed in transfected cells. The settings on record: FRET or luciferase. The assay is classed as cell-based, murine. On the procedure: (§1) Creation of stable C-AR-Y reporter cell lines. Cell lines listed above were either transfected with a plasmid or a virus containing the CFP-AR-YFP construct preceding an IRES and hygromycin resistance gene and clonal stable cell lines selected. Qualification criteria for the transfected cell lines were described by Jones et al, ACS Chem Biol, 3(7):412-8 (2008).
(§2) Screen for AR-modulators. Screening was performed essentially as described by Jones et al, ACS Chem Biol, 3(7):412-8 (2008). Briefly, C-AR-Y reporter GTI-7 were transferred to 96 well plates and treated with library compounds for 24 hours. […] The compounds to be tested were from the NCI/DTP Open Chemical Repository's Approved Oncology Drugs Set II, Diversity Set II and Mechanistic Set. […] After 24 hours, medium was aspirated and FRET was measured as previously described using a monochromator-based fluorescence plate reader (M1000, Tecan, Inc.). Jones et al, ACS Chem Biol, 3(7):412-8 (2008). […]
(§3) In order to identify potential cell-type selective AR modulators, the FRET-based assay of AR conformation change was utilized. […] This produces an accurate and quantifiable read-out of AR activity. […] Candidate hits were then further evaluated by dose response. […] In addition to FRET, AR transcriptional activity was also assessed in several cell lines by transfecting cells with a luciferase reporter driven by the human PSA promoter. […]

The target of assay [2] is T1, AR. Put plainly: FRET-based AR conformation change reporter (CARY) in LNCaP C4 prostate cells. In kind it is cell-based. The arrangement: Full length AR with cyan fluorescent protein (CFP) or yellow fluorescent protein (YFP) fused to either end (CARY); expressed in transfected cells. The settings on record: LNCaP C4 prostate cancer cells. Here is the method:
as §1, §2, §3

A further assay concerns β-catenin. Put plainly: Western blot of β-catenin in nuclear and cytoplasmic fractions of GT1-7 cells. In kind it is cell-based, murine. The settings on record: nuclear fraction, FIG. 3D. The source says:
Western Blot. Cell lysates was separated on a 6% SDS page gel and transferred to a nitrocellulose membrane. The membrane was blocked for one hour in 5% skim milk dissolved in TBS-T and probed with the following antibodies ([…]): FoxM1 (rabbit, GeneTex), AR: 441 (mouse, Santa Cruz Biotechnology), β-catenin (rabbit 9562, Cell Signaling Technology), p84 (mouse, GeneTex) and actin (mouse, Santa Cruz Biotechnology). Horse radish peroxidase linked secondary antibodies were used along with ECL reagents for visualization. Western blots were quantified using Quantity One analysis software (BioRad).
It has been previously reported that thiostrepton causes decreased levels of FOXM1. Hegde et al, Nat Chem, 3(9):725-31 (2011); Gartel, Front Oncol, 3:150 (2013). […] The nuclear association between FOXM1 and β-catenin increases the transcriptional activity of both factors. Zhang et al, Cancer Cell, 20(4):427-42 (2011). β-catenin is a key AR coactivator in a variety of cells. Yang, J Biol Chem, 277(13):11336-44 (2002); Truica et al, Cancer Res, 60(17):4709-13 (2000). The inventors believed that thiostrepton could inhibit AR activity by limiting access to nuclear β-catenin via FOXM1 depletion. […] As expected, control actin protein was observed primarily in cytoplasmic fraction.
(In western blotting, separated proteins are transferred to a membrane and probed.)

Regarding `C=C(NC(=O)C(=C)NC(=O)c1csc(C2=N[C@@H]3c4csc(n4)[C@H]4NC(=O)c5csc(n5)[C@H]([C@](C)(O)[C@@H](C)O)NC(=O)[C@H]5CSC(=N5)/C(=C/C)NC(=O)[C@H]([C@@H](C)O)NC(=O)c5csc(n5)[C@]3(CC2)NC(=O)[C@H](C)NC(=O)C(=C)NC(=O)C(=C)NC(=O)[C@H](C(C)C)N[C@@H]2C=Cc3c([C@H](C)O)cc(nc3[C@H]2O)C(=O)O[C@@H]4C)n1)C(N)=O` [NSC285116, siomycin A], the “AR inhibitor (antagonist) activity in words” value at AR [1] is “little to no activity; also recorded: not C2C12 muscle cells”. Also, the “AR inhibitor activity in words” value on AR [2] (listed as Siomycin A) was “little to no activity”; on AR [2] (listed as siomycin), “not as sensitive”.

As to `C=C(NC(=O)C(=C)NC(=O)c1csc(C2=N[C@@H]3c4csc(n4)[C@H]4NC(=O)c5csc(n5)[C@H]([C@](C)(O)[C@@H](C)O)NC(=O)[C@H]5CSC(=N5)/C(=C/C)NC(=O)[C@H]([C@@H](C)O)NC(=O)c5csc(n5)[C@]3(CC2)NC(=O)[C@H](C)NC(=O)C(=C)NC(=O)[C@H](C)NC(=O)[C@H]([C@@H](C)CC)N[C@@H]2C=Cc3c([C@H](C)O)cc(nc3[C@H]2O)C(=O)O[C@@H]4C)n1)C(N)=O` [thiostrepton], the “levels of nuclear β-catenin” value in the assay on β-catenin is on record as “lower levels”.
